Laboratory results from patent US5886178A, “3-aroylbenzylpyridazinone derivatives” (Syntex (U.S.A.) Inc., priority 1997, dated 1999).

Assays:
COX I = COX I (Homo sapiens, UniProt P23219); experiment: Inhibition of COX I in a cell based assay (human promonocytic THP cells, TXB2 ELISA); design: endogenous in cells; host or cells: human promonocytic THP cells, PMA-treated
Protocol: The COX I and COX II inhibitory activity of compounds of this invention in a cell based assay was determined as described below.
The inhibitory activity of the test compounds against cell associated COX-1 was measured using human promonocytic THP cells. Cells were plated in 96-well microtiter plates at a density of 8×10^4 cells/well in RPMI-1640 medium (Gibco). COX-1 activity was initiated by incubating the cells with 0.1μM phorbol 12-myristate 13-acetate (PMA, Sigma) in dimethyl sulfoxide (DMSO, Aldrich) at 37° C. After 40-48 hours, the medium was removed, and the cells were washed twice with phosphate buffered saline (PBS, Gibco). 225 μl/well of fresh medium containing desired concentrations of the test compounds in DMSO, or the carrier vehicles (control wells), was added and the cells incubated at 37° C. for 30 minutes; after which 5 μM calcium ionophore A23187 (Sigma) was added and the incubation was continued for an additional 10 minutes. The reaction was terminated by transferring the plates to ice. The culture supernatants were transferred and appropriately diluted and the amount of thromboxane B2 (TXB2) present in each supernatant was quantitated using an ELISA kit (Cayman Chemicals).
The COX I and COX II inhibitory activities in the cell based assay (expressed as IC50) of some compounds of the invention were: […]

[1] = Carrageenan-induced paw edema in the rat (anti-inflammatory activity); type: in vivo; conditions: 3 h, 10 mg/Kg, oral, female rats, read-out: % inhibition of increase in hind paw weight
Protocol: The anti-inflammatory activity of compounds of this invention was determined by measuring the inhibition of carrageenan-induced paw edema in the rat, using a modification of the method described in Winter C. k et al (1962) "Carrageenan-Induced Edema in Hind Paw of the Rat as an Assay for Anti-inflammatory Drugs". Proc. Soc. Exp. Biol. Med. 111: 544-547. This assay has been used as a primary in vivo screen for anti-inflammatory activity of most NSAIDs, and is considered predictive of human efficacy. Briefly, test materials were administered orally to female rats in a volume of 1 ml prepared as solutions or suspensions in an aqueous vehicle containing 0.9% NaCl, 0.5% sodium carboxymethyl-cellulose, 0.4% polysorbate 80, 0.9% benzyl alcohol and 97.3% distilled water. Control rats received vehicle alone. After 1 hr 0.05 ml of a 0.5% solution of Carrageenan (Type IV Lambda, Sigma Chemical Co.) in 0.9% saline was injected into the subplantar region of the right hind paw. Three hours later the rats were euthanized in a carbon dioxide atmosphere; hind paws were removed by severing at the tatso-crural joint; and the left and right paws were weighed. The increase in weight of the right paw over the left paw was obtained for each animal and the mean increases were calculated for each group. The anti-inflammatory activity of the test materials is expressed as the percent inhibition of the increase in hind paw weight of the test group relative to the vehicle-dosed control group.
The anti-inflammatory activities (expressed as % inhibition) of some of the compounds of the invention were: […]

[2] = Acetic Acid-induced Rat Writhing Assay (analgesic activity); type: in vivo; conditions: 10 mg/Kg, oral, male Sprague Dawley rats
From the text: The analgesic activity of compounds of this invention may be determined by the Acetic Acid-induced Rat Writhing Assay, using a modification of the method described in Berkenkopf, J. W. and Weichman, B. M. "Production of Prostacyclin in Mice following Intraperitoneal Injection of Acetic Acid, Phenylbenzoquinone and Zymosan: Its Role in the Writhing Response". Prostaglandins: 36: 693-70 (1988). This assay is one of several acute assays which have been used to assess the analgesic activity of NSAIDs, and is considered predictive of human efficacy. The test materials were administered orally to male Sprague Dawley rats in a volume of 1 ml/100 g body weight as solutions or suspensions in an aqueous vehicle containing 0.9% NaCl, 0.5% sodium carboxymethyl-cellulose, 0.4% polysorbate 80, 0.9% benzyl alcohol and 97.3% water. Control rats received vehicle alone. One hour after compound administration, 0.3 ml/100 g body weight of 0.75% solution of acetic acid was injected intraperitoneally. The acetic acid injection induces a series of characteristic writhing responses, which were counted over the period between 15 and 30 minutes after the injection. The analgesic activity of test materials is expressed as the percentage inhibition of writhing in the test group relative to the control group.

COX I, sequence (P23219 24-599): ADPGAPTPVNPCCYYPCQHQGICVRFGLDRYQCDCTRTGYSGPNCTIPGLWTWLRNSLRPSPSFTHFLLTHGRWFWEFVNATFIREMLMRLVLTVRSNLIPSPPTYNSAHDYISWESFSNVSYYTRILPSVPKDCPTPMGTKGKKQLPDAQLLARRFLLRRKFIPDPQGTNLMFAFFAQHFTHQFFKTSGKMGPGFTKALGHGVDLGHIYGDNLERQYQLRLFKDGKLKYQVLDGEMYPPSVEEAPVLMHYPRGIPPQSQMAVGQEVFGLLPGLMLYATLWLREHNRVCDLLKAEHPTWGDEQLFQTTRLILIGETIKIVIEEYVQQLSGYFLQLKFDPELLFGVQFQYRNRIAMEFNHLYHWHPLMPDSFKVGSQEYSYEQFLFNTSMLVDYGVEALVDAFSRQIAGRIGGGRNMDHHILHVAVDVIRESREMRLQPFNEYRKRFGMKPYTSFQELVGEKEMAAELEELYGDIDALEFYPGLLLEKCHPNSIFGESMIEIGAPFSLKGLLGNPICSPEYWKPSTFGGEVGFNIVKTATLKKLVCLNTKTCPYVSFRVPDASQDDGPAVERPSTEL

- IC50 (COX I): 4.8 µM
Structure (SMILES): COc1ccc(C(=O)c2cccc(Cc3ccc(=O)[nH]n3)c2C)cc1 [Cpd 11, 6-[3-(4-methoxybenzoyl)-2-methylbenzyl]-2H-pyridazin-3-one]
- inhibition in vivo at 10 mg/kg [1]: 44%
- % inhibition of writhing responses [2]: 10%
